Data as given in publication PMC7405733, “Pharmacokinetics of micafungin in patients treated with extracorporeal membrane oxygenation: an observational prospective study” (Revista Brasileira de Terapia Intensiva, 2020).
Converted amounts (≈) assume the structure as drawn. Read-outs that look alike come from different tables or passages of the source. *1 amine or outer side, *2 acyl side, *3 side chain or, on linkers, in order; H or OH if unused. Where a SMILES comes first, the peptide text is derived from it. Bridges are numbered along the chain shown (N, C = ends). [ ]: non-standard residue; d: D form. The star is where a group is joined. hTyr(3S-OH,4S-OH,3'-OSO3H) = N[C@H](C(=O)O)[C@H](O)[C@@H](O)c1ccc(O)c(OS(=O)(=O)O)c1; Orn(4R-OH,5R-OH) = O=C([C@H](C[C@@H](O)[C@@H](O)N[*:3])N[*:1])[*:2]; Pro(3S-OH,4S-Me) = C[C@H]1CN[C@H](C(=O)O)[C@H]1O; X1 = CCCCCOc1ccc(-c2cc(-c3ccc(C(=O)*)cc3)no2)cc1; Gln(3R-OH) = NC(=O)C[C@@H](O)[C@H](N)C(=O)O; Hyp = O=C(O)[C@@H]1C[C@@H](O)CN1

Legend:
[1] = parameters: method as in PMID 25947367; conditions: daily dose of 100mg, cited from earlier work
[2] = ECMO patients vs non-ECMO patients; hemodialysis was used in 4 patients; cited from earlier work
From the text: Adsorption by the hemoﬁlter appears to be the most likely explanation when this is in line with an ECMO system. In an “ex vivo” study, the recovery of micafungin was 91% when the in-line hemofilter was removed.

[3] = Micafungin plasma pharmacokinetics in adult patients treated with ECMO (samples before and after the oxygenation membrane); assay type: in vivo, human; conditions: for clearance / Vd / Cmax / AUC: human
Procedure: (§1) We conducted an observational, prospective, noninterventional and nondrug-linked study of the PKs and safety of micafungin in adult patients treated with ECMO in two Spanish hospitals: the intensive care unit (ICU) of the Hospital Universitario Marqués de Valdecilla, Santander, and the Anaesthesiology and Reanimation Department of the Hospital Universitario La Fe, Valencia, Spain. Prophylactic micafungin was administered in all patients. The study period was from January 2015 until April 2016. The PK analysis was performed in the Hospital del Mar, Barcelona, Spain. The trial was authorized by the corresponding Ethics Committees (CEIC Approval Number 17/2014), and Informed Consent of all the patients or their legal representatives was obtained.
Micafungin was given at a dose of 100mg diluted in 100ml of 0.9% saline in a 60-minute infusion always protected from light to prevent degradation. Five mL blood samples were taken, protected from light, on days 1 and 4 of the treatment with micafungin. The samples were taken through an access point before and after the oxygenation membrane (input and output, respectively). The extraction times for the calculation of complete PK curves were as follows: before the administration of the drug (trough or zero time); immediately after intravenous infusion (1-hour peak or end-of-infusion peak); and 3, 5, 8, 18 and 24 hours after the beginning of the infusion. Samples were centrifuged at a speed of 1,000g for ten minutes at 4 °C. The supernatant plasma was aliquoted into volumes of 150µl that were frozen at -80 °C until they were to be analyzed. The measurement of the total micafungin concentration (free plus protein-bound fractions) was performed by means of a high-performance liquid chromatography technique.
The following PK parameters were calculated: area under the curve (AUC), CL, Vd and plasma half-life time (t/2) with a noncompartmental PK data analysis using a nonparametric method: the Mann-Whitney test and the Wilcoxon signed-rank test (paired test, in consecutive days). For precision analysis, confidence intervals were calculated by bootstrapping with 1,000 repetitions using the method […] (BCa).
The calculation of the differences in the concentration of micafungin at the input (Cin) and output (Cout) of the oxygenator membrane allowed us to calculate the oxygenator’s degree of extraction. It should be remembered that there may be losses of micafungin in tubes and cannula and in the centrifugal pump.
Only continuous epidemiological and clinical data are presented as the mean and standard deviation (SD), and categorical data are presented as absolute numbers because of the small sample size. The rest of the parameters, including Cmin and Cmax, are presented as medians.

candidemia = assay: Candidemia in patients on ECMO receiving prophylactic micafungin; assay type: in vivo, human; conditions: prophylactic micafungin 100mg, 12 adult ECMO patients
Procedure: as §1

Candida albicans = test system: Candida albicans; parameters: method as in PMID 24153129, PMID 21300835; conditions: published for Candida albicans; cited from earlier work

Structure (SMILES): CCCCCOc1ccc(-c2cc(-c3ccc(C(=O)N[C@H]4C[C@@H](O)[C@@H](O)NC(=O)[C@@H]5[C@@H](O)[C@@H](C)CN5C(=O)[C@H]([C@H](O)CC(N)=O)NC(=O)[C@H]([C@H](O)[C@@H](O)c5ccc(O)c(OS(=O)(=O)O)c5)NC(=O)[C@@H]5C[C@@H](O)CN5C(=O)[C@H]([C@@H](C)O)NC4=O)cc3)no2)cc1 [micafungin] (X1-[Orn(4R-OH,5R-OH)]T[Hyp][hTyr(3S-OH,4S-OH,3'-OSO3H)][Gln(3R-OH)][Pro(3S-OH,4S-Me)]; lactam 1-C)
- AUC after a daily dose of 100mg in ICU patients ([1]; ICU patients (without ECMO)): 78.6 mg·h/L
- AUC after a daily dose of 100mg in healthy adults ([1]; healthy adults): 132.6 mg·h/L
- reduction in the AUC in the ECMO group versus non-ECMO control group [2]: 23%
- Cmin out ([3]; Table 2, day 1, after membrane, 100mg iv, ECMO patients, plasma HPLC, median): 1.41 mg/L
- CL in ([3]; Table 2, day 1, before membrane, 100mg iv, ECMO patients, noncompartmental, median): 1.07 L/h
- Cmin in ([3]; Table 2, day 1, before membrane, 100mg iv, ECMO patients, plasma HPLC, median): 1.41 mg/L
- Cmin out ([3]; Table 2, day 4, after membrane, 100mg iv, ECMO patients, plasma HPLC, median): 1.75 mg/L
- Cmin in ([3]; Table 2, day 4, before membrane, 100mg iv, ECMO patients, plasma HPLC, median): 1.80 mg/L
- AUCin on day one ([3]; adult ECMO patients, 100mg 60-minute iv infusion, day 1, sample before the membrane, plasma total concentration by HPLC, noncompartmental, 95%CI 52.8 - 73.4, 10 patients): 62.1 mg·h/L
- AKI AUCout ([3]; day 1, ECMO patients with acute kidney injury, after membrane, 100mg iv, p = 0.71): 69.3 p = 0.71
- Hepatic failure AUCout ([3]; day 1, ECMO patients with hepatic failure, after membrane, 100mg iv, p = 0.91): 61.6 p = 0.91
- AKI AUCout ([3]; day 4, ECMO patients with acute kidney injury, after membrane, 100mg iv, p = 0.88): 106.7 p = 0.88
- Hepatic failure AUCout ([3]; day 4, ECMO patients with hepatic failure, after membrane, 100mg iv, p = 0.68): 85.2 p = 0.68
- concentration difference between samples before the membrane (C in) and after the membrane (C out) ([3]; first day of treatment, 100mg iv, ECMO patients, figure 1A): did not show any concentration difference
- concentration difference between samples before the membrane (Cin) and after the membrane (Cout) ([3]; fourth day of treatment, 100mg iv, ECMO patients, figure 1B): did not show any concentration difference
- clearance ([3]; plasma, iv, 100 mg, Table 2, day 1, after membrane, 100mg iv, ECMO patients, noncompartmental, median, read-out: CL out (converted)): 16.5 mL/min
- Vd ([3]; plasma, iv, 100 mg, Table 2, day 1, after membrane, 100mg iv, ECMO patients, noncompartmental, median, read-out: Vd out): 27.2 L
- Cmax ([3]; plasma, iv, 100 mg, Table 2, day 1, after membrane, 100mg iv, ECMO patients, plasma HPLC, median, read-out: Cmax out): 4950 ng/mL
- AUC ([3]; plasma, iv, 100 mg, Table 2, day 1, after membrane, 100mg iv, ECMO patients, plasma HPLC, noncompartmental, median, read-out: AUC out): 54100 ng·h/mL
- Vd ([3]; plasma, iv, 100 mg, Table 2, day 1, before membrane, 100mg iv, ECMO patients, noncompartmental, median, read-out: Vd in): 28.6 L
- Cmax ([3]; plasma, iv, 100 mg, Table 2, day 1, before membrane, 100mg iv, ECMO patients, plasma HPLC, median, read-out: Cmax in): 5850 ng/mL
- clearance ([3]; plasma, iv, 100 mg, Table 2, day 4, after membrane, 100mg iv, ECMO patients, noncompartmental, median, read-out: CL out (converted)): 12.8 mL/min
- Vd ([3]; plasma, iv, 100 mg, Table 2, day 4, after membrane, 100mg iv, ECMO patients, noncompartmental, median, read-out: Vd out): 18.1 L
- Cmax ([3]; plasma, iv, 100 mg, Table 2, day 4, after membrane, 100mg iv, ECMO patients, plasma HPLC, median, read-out: Cmax out): 6750 ng/mL
- AUC ([3]; plasma, iv, 100 mg, Table 2, day 4, after membrane, 100mg iv, ECMO patients, plasma HPLC, noncompartmental, median, read-out: AUC out): 81000 ng·h/mL
- clearance ([3]; plasma, iv, 100 mg, Table 2, day 4, before membrane, 100mg iv, ECMO patients, noncompartmental, median, read-out: CL in (converted)): 11.8 mL/min
- Vd ([3]; plasma, iv, 100 mg, Table 2, day 4, before membrane, 100mg iv, ECMO patients, noncompartmental, median, read-out: Vd in): 16.1 L
- Cmax ([3]; plasma, iv, 100 mg, Table 2, day 4, before membrane, 100mg iv, ECMO patients, plasma HPLC, median, read-out: Cmax in): 12200 ng/mL
- AUC ([3]; plasma, iv, 100 mg, Table 2, day 4, before membrane, 100mg iv, ECMO patients, plasma HPLC, noncompartmental, median, read-out: AUC in): 88800 ng·h/mL
- AUC ([3]; plasma, iv, 100 mg, day 1, ECMO patients without acute kidney injury, after membrane, 100mg iv, read-out: No AKI AUCout): 61900 ng·h/mL
- AUC ([3]; plasma, iv, 100 mg, day 1, ECMO patients without hepatic failure, after membrane, 100mg iv, read-out: No hepatic failure AUCout): 66100 ng·h/mL
- AUC ([3]; plasma, iv, 100 mg, day 4, ECMO patients without acute kidney injury, after membrane, 100mg iv, read-out: No AKI AUCout): 95100 ng·h/mL
- AUC ([3]; plasma, iv, 100 mg, day 4, ECMO patients without hepatic failure, after membrane, 100mg iv, read-out: No hepatic failure AUCout): 117000 ng·h/mL
- AUC ([3]; adult ECMO patients, 100mg 60-minute iv infusion, day 1, sample after the membrane, plasma HPLC, noncompartmental, 95%CI 52.4 - 76.7, 10 patients, read-out: AUCout on day one): 63400 ng·h/mL
- candidemia in patients on ECMO who received prophylactic micafungin (candidemia): No candidemia was observed
- MIC90 (Candida albicans): 0.03 µg/mL (≈ 0.0236 µM)
